According to patent US8552052B2, “Use of diindolylmethane-related indoles for the treatment and prevention of respiratory syncytial virus associated conditions” (BioResponse, L.L.C., priority 2004, dated 2013):
“Also recorded” adds a separate entry of the source.

Columns and labels:
Caspase-3 = Caspase-3 activation in RSV infected A549 cell culture; assay type: cell-based, human; details: RSV infected A549 cells; DIM 70, 210, and 700 nM
rainbow trout = details: cited from earlier work
Caspase 3 = test: Ac-DEVD-AFC caspase-3 protease assay of lung homogenate of RSV infected BALB/c mice; assay type: in vivo; details: oral and subcutaneous DIM, FIG. 5A
Method: The Following Experimental BALB/c Groups and Treatment Protocol Using DIM were Studied: • 1. RSV infected positive control group, infected with RSV and injected subcutaneously (SC) once daily with DMSO/Phosphate Buffered Saline (PBS) vehicle. • 2. RSV infected, Low dose Parenteral DIM group (15 mg/kg/day), injected SC once daily with DIM suspension • 3. RSV infected, High dose DIM Group (150 mg/kg/day), injected SC once daily with DIM suspension • 4. RSV infected, orally treated DIM group (250 mg/kg/day from absorption enhanced DIM [Example 6.1]), added to powdered feed • 5. Uninfected negative control group, nasally administered vehicle only, and injected subcutaneously (SC) once daily with DMSO/PBS vehicle
Mouse treatment, infection and harvest. Intranasal application of RSV in BALB/c mice followed an established procedure (Bitko et al., 2005, Nat Med. 11(1):50-5) and causes predictable pulmonary disease and inflammation. For RSV infection, RSV stock was diluted such that each mouse was given 10^7 pfu (plaque forming unit) of the virus intranasally. […]

[1] = system: RSV infected A549 pulmonary epithelial cells; test: Phosphohistone (H2A.X Phosphorylation) assay of apoptosis in RSV infected A549 cells; assay type: cell-based, human; details: 18 hour treatment, FIG. 1
Method: Cell Culture—A549 cells, a tumor cell line with properties of normal airway epithelial cells, were obtained from American Type Culture Collection (ATCC, Manassas, Va.) and incubated at 37° C. in 5% CO2. The cells were cultured in Eagle's minimum essential medium (MEM, Invitrogen) supplemented with 10% fetal bovine serum (HyClone, Logan, Utah) and […] gentamicin. The A549 cells were subcultured by harvesting in 0.12% trypsin no more than 20 times from stock originally designated at pass 70. To minimize effects of exogenous growth factors or cytokines in this system, the supplemented serum concentration was reduced to 0.5% 24 h prior to and during all experiments with RSV infection.
RSV Virus—RSV, strain A2, was obtained from Advanced Biotechnologies Inc. (Columbia, Md.) and was used directly as supplied for all experiments. The viral preparation was tested to have a TCID50 titer of ˜1×10^9 in Hep-2 cells at 7 days. […]
Cell Viability and Death Assays—Induction of Apoptosis by DIM in RSV infected A549 cell was measured according to a Phosphohistone Assay. […] The detection was done by LumiGLO™ chemiluminescent substrate and the plate was read in a microplate luminometer after 10-20 min. Luminescence indicated the extent of apoptosis in the sample examined.

## c1ccc2c(Cc3c[nH]c4ccccc34)c[nH]c2c1 [DIM, 3,3′-diindolylmethane]
Caspase-3
  time of culture at which apoptosis specific Caspase-3 is activated: less than 12 hrs
Rainbow trout
  estrogenic activity: estrogenic
Caspase 3
  apoptosis in mouse lung homogenate: activated Caspase 3: increased apoptosis in lung tissue homogenate; also recorded: increased levels of apoptosis-specific, activated Caspase 3
[1]; DIM 70, 210, 700 nM, LY294002 2 and 5 μM
  cells undergoing apoptosis: accelerated apopotosis in RSV infected cells; also recorded: significant, dose-related increase in cells undergoing apoptosis
[1]; nM DIM
  Promotion of apoptosis by DIM compared with LY294002: more potent than that seen with LY294002
